Source: patent US20090247579A1, “2-[3H-THIAZOL-2-YLIDINEMETHYL]PYRIDINES AND RELATED COMPOUNDS AND THEIR USE” (CANCER RESEARCH TECHNOLOGY LIMITED, priority 2006, published 2009)
“And” between values parts separate entries of the source, which are not always exact repeats. Equal entries are not always repeated. Where two headings read alike, the source gives them in different places.

What was measured:
[1] = tested on: A2780; test: Modified MTT assay, A2780 (parental, MMR proficient); type: cell-based, human
Procedure: (§1) Relative drug sensitivities (Resistance Factor) and IC50 values were determined by a modified MTT assay (see, e.g., Mosmann, 1983; Plumb et al., 1989), as described below: • (1) Trypsinise a sub-confluent monolayer culture and collect cells in growth medium containing serum. Centrifuge the suspension (200 g, 5 minutes) to pellet cells, re-suspend in growth medium, and count cells. Dilute cells to a density of 5×10^3 cells/mL allowing 60 mL of cell suspension for 3 microtitre plates. Transfer cell suspension to a 10 cm petri dish, and with a multichannel pipette add 200 μL to each well of the central 10 columns of a flat bottomed 96-well plate (80 wells per plate) starting with column 2 and ending with column 11. Add 200 μL of growth medium to the 8 wells in columns 1 and 12. Put the plates in a plastic box and incubate in a humidified atmosphere at 37° C. for 2-3 days so that cells are in the exponential phase of growth for drug addition. • (2) Prepare a serial 5-fold dilution of the cytotoxic drug in growth medium to give 8 concentrations. Pipette 6 mL of growth medium in to each of 7 universal containers (30 mL). Prepare 10 mL of the highest concentration of the drug and transfer 1.5 mL of this solution to the first universal container. Mix and then transfer 1.5 mL to the next universal container. Continue until the seventh universal container is reached. The concentrations should be chosen so that the highest concentration kills most of the cells and the lowest kills none of the cells. Normally, three plates are used for each drug to give triplicate determinations within one experiment. • (3) The medium is removed from all the wells in columns 2 to 11. This can be achieved with a hypodermic needle attached to a suction line. Cells in the 8 wells in columns 2 and 11 are fed with 200 μL of fresh growth medium. The drug solutions are transferred to 10 cm petri dishes and 200 μL added to all 8 wells of a column. For ease of analysis arrange the drug solutions in order so that the highest is in column 3 down to the lowest in column 10. Plates are returned to the plastic box and incubated for 24 hours. • (4) At the end of the drug exposure period, the medium is removed from all wells containing cells and the cells are fed with 200 μL of fresh medium. • (5) The plates are fed daily for two more days. • (6) The plates are fed with 200 μL of fresh medium and 50 μL of the MTT solution (5 mg/mL in PBS) is added to all wells in columns 1 to 11. Plates are wrapped in aluminium foil and incubated for 4 hours in a humidified atmosphere at 37° C. • (7) The medium and MTT are then removed from the wells and the purple MTT-formazan crystals dissolved by addition of 200 μL of DMSO to all wells in columns 1 to 11. Glycine buffer is added (25 μL per well) to all wells containing DMSO. • (8) Absorbance is recorded at 570 nm with the wells in column 1, which contained medium and MTT but no cells used as a blank. • (9) A graph is plotted of absorbance (y-axis) against drug concentration (x-axis). The mean absorbance reading from the wells in columns 2 and 11 is used as the control absorbance and the IC50 concentration is determined as the drug concentration required to reduce the absorbance to half that of the control. IC10 or IC90 values can be determined in the same manner.
(§2) A2780/cp70 and A2780/mcp1 have lost expression of MLH1, have lost MMR activity, and have microsatellite instability compared to A2780. The CpG island at the MLH1 gene is methylated in A2780/cp70 and A2780/mcp1, but not A2780.
(§3) IC50 values (μM) for A2780, A2780/cp70, and A2780/mcp1 and Resistance Factors (RF) (the fold difference in resistance from parental A2780) were determined based on the MTT assay described above for several compounds of the present invention (including, e.g., MMR201).

[2] = tested on: A2780/mcp1; test: Modified MTT assay, A2780/mcp1 (cisplatin resistant, MMR deficient); type: cell-based, human; conditions: 24 hour drug exposure; for IC50: MTT; for A2780/mcp1 RF (Resistance Factor): fold difference in resistance from parental A2780
Procedure: as §1, §2, §3

[3] = tested on: A1 (MLH1+ve, MMR proficient); test: Modified MTT assay, A1 line (A2780/cp70 + chromosome 3, MLH1 +ve); type: cell-based, human
Procedure: as §1
A1, E1, and A2 are derived by transfer of human chromosome 3 into A2780/cp70. MLH1 is located on chromosome 3.
IC50 values (μM) for A1 (MLH1+ve, MMR proficient) or E1 (MLH1+ve, MMR proficient) and A2 (MLH1−ve, MMR deficient) lines and Resistance Factors (RF) (the fold difference in resistance between the A2 line, MMR deficient, and the A1 line, MMR proficient) were determined based on the MTT assay described above for several compounds of the present invention (including, e.g., MMR201). Compounds showing increased activity against the MLH1 deficient A2 line compared to the MLH1 proficient A1 or E1 line have RF values less than 1.

[4] = tested on: RKO (MLH1); test: Modified MTT assay, colon panel RKO; type: cell-based
Procedure: (§4) Relative drug sensitivities (Resistance Factor) and IC50 values were determined by a modified MTT assay (see, e.g., Mosmann, 1983; Plumb et al., 1989), as described below: • (1) Trypsinise a sub-confluent monolayer culture and collect cells in growth medium containing serum. Centrifuge the suspension (200 g, 5 minutes) to pellet cells, re-suspend in growth medium, and count cells. Dilute cells to a density of 5×10^3 cells/mL allowing 60 mL of cell suspension for 3 microtitre plates. Transfer cell suspension to a 10 cm petri dish, and with a multichannel pipette add 200 μL to each well of the central 10 columns of a flat bottomed 96-well plate (80 wells per plate) starting with column 2 and ending with column 11. Add 200 μL of growth medium to the 8 wells in columns 1 and 12. […] Glycine buffer is added (25 μL per well) to all wells containing DMSO. • (8) Absorbance is recorded at 570 nm with the wells in column 1, which contained medium and MTT but no cells used as a blank. • (9) A graph is plotted of absorbance (y-axis) against drug concentration (x-axis). The mean absorbance reading from the wells in columns 2 and 11 is used as the control absorbance and the IC50 concentration is determined as the drug concentration required to reduce the absorbance to half that of the control. IC10 or IC90 values can be determined in the same manner. […]

[5] = tested on: DLD1 (MSH6); test: Modified MTT assay, colon panel DLD1; type: cell-based
Procedure: as §4

[6] = tested on: HCT15 (MSH6); test: Modified MTT assay, colon panel HCT15; type: cell-based
Procedure: as §4

[7] = tested on: BE; test: Modified MTT assay, colon panel BE; type: cell-based
Procedure: as §4

[8] = tested on: OVCAR5; test: Cancer cell line panel, OVCAR5 (ovary); type: cell-based
Procedure: as §4

[9] = tested on: MDAMB231; test: Cancer cell line panel, MDAMB231 (breast); type: cell-based
Procedure: as §4

[10] = tested on: T47D; test: Cancer cell line panel, T47D (breast); type: cell-based
Procedure: as §4

[11] = tested on: LDAN; test: Cancer cell line panel, LDAN (NSCLC); type: cell-based
Procedure: as §4

[12] = tested on: H125; test: Cancer cell line panel, H125 (NSCLC); type: cell-based
Procedure: as §4

[13] = tested on: SKMES; test: Cancer cell line panel, SKMES (NSCLC); type: cell-based
Procedure: as §4

[14] = tested on: A375; test: Cancer cell line panel, A375 (melanoma); type: cell-based
Procedure: as §4

[15] = tested on: DU145; test: Cancer cell line panel, DU145 (prostate); type: cell-based
Procedure: as §4

[16] = tested on: PC3; test: Cancer cell line panel, PC3 (prostate); type: cell-based
Procedure: as §4

SMILES: CC[n+]1c(/C=C2\Sc3oc4ccccc4c3N2C)ccc2cc(C)ccc21.[I-] [MMR201]
- IC50 ([1]; Homo sapiens, A2780, 24 hour drug exposure): 58 ± 5 nM
- IC50 ([2]; Homo sapiens, A2780/mcp1): 14 ± 1 nM
- A2780/mcp1 RF (Resistance Factor) [2]: 0.24
- IC50 ([3]; Homo sapiens, A2780/CP70, read-out: A1 or E1 MLH1 +ve MMR proficient IC50): 121 ± 18 nM
- IC50 ([4]; MMR deficient, read-out: MMR201 IC50): 27.2 ± 0.7 nM
- IC50 ([5]; Homo sapiens, DLD-1, MMR deficient, p53 mut, read-out: MMR201 IC50): 186 ± 8.3 nM
- IC50 ([6]; Homo sapiens, HCT-15, MMR deficient, p53 wt/mut, read-out: MMR201 IC50): 584 ± 55.1 nM
- IC50 ([7]; MMR status unknown, p53 ?, read-out: MMR201 IC50): 0.125 ± 0.0173 µM
- IC50 ([8]; Homo sapiens, OVCAR-5, read-out: MMR201): 699 ± 54.6 nM
- IC50 ([9]; Homo sapiens, MDA-MB-231, read-out: MMR201): 0.235 ± 0.0225 µM
- IC50 ([10]; Homo sapiens, read-out: MMR201): 319 ± 26 nM
- IC50 ([11]; read-out: MMR201): 114.4 ± 0.07 nM
- IC50 ([12]; Homo sapiens, NCI-H125, read-out: MMR201): 130 ± 15 nM
- IC50 ([13]; read-out: MMR201): 398 ± 61.9 nM
- IC50 ([14]; Homo sapiens, A-375, read-out: MMR201): 118 ± 17.7 nM
- IC50 ([15]; Homo sapiens, DU-145, read-out: MMR201): 328 ± 7.8 nM
- IC50 ([16]; Homo sapiens, PC-3, read-out: MMR201): 531 ± 50.3 nM

SMILES: N.N.[Cl][Pt][Cl] [Cisplatin, reference compound]
- IC50 ([1]; 24 hour drug exposure): 215 nM and 244 nM
- IC50 [2]: 547 nM and 672 nM
- A2780/mcp1 RF (Resistance Factor) [2]: 2.5 and 2.8
- IC50 ([3]; read-out: A1 or E1 MLH1 +ve MMR proficient IC50): 715 ± 69 nM
- IC50 ([4]; read-out: Cisplatin IC50, MMR deficient): 4010 ± 100 nM
- IC50 ([5]; read-out: Cisplatin IC50, MMR deficient, p53 mut): 1670 ± 30 nM
- IC50 ([6]; read-out: Cisplatin IC50, MMR deficient, p53 wt/mut): 2920 ± 20 nM
- IC50 ([7]; read-out: Cisplatin IC50, MMR status unknown, p53 ?): 8.67 ± 1.42 µM
- IC50 ([8]; read-out: Cisplatin): 1780 ± 100 nM
- IC50 ([9]; read-out: Cisplatin): 11.2 ± 0.7 µM
- IC50 ([10]; read-out: Cisplatin): 5420 ± 220 nM
- IC50 ([11]; read-out: Cisplatin): 1230 ± 70 nM
- IC50 ([12]; read-out: Cisplatin): 3690 ± 430 nM
- IC50 ([13]; read-out: Cisplatin): 5160 ± 80 nM
- IC50 ([14]; read-out: Cisplatin): 613 ± 51 nM
- IC50 ([15]; read-out: Cisplatin): 1680 ± 40 nM
- IC50 ([16]; read-out: Cisplatin): 2270 ± 270 nM
